Laboratory results from patent publication US9636345B2, “Benzimidazole derivatives useful TRPM8 channel modulators” (Janssen Pharmaceutica NV, priority 2009, dated 2017).
Structures can show the parent of a compound that is named as a salt. Where two headings read alike, the source gives them in different places.

What was measured:
[1] = system: Male Sprague Dawley rats; assay: Inhibition of icilin-induced "wet-dog" shakes in rats; format: in vivo; conditions: rat; 10 mg/kg p.o.; 60 min pre-icilin; vehicle 0.5% HPMC
Method: Male Sprague Dawley rats ([…], Charles River Labs, n=6-9/treatment) were used to evaluate the ability of test compounds to block icilin-induced “wet-dog” shakes (WDS). The test compound was administered at 10 mg/kg in an appropriate vehicle, such as hydroxypropyl-β-cyclodextrin (HP-β-CD), methocellulose, 10% Solutol, H2O or the like, by the appropriate route (e.g., i.p or p.o), 30-60 min before icilin. Icilin was then administered in PEG-400 or 10% solutol/H2O, at 1.0 or 3.0 mg/kg, i.p. and spontaneous “wet-dog” shakes were counted 10-20 min post-icilin.
A representative compound of the present invention was tested at 10 mg/kg p.o. and 60 min pre-icilin, according to the procedure described above. Results, as listed in Table 8 below, are presented as a percent inhibition of shakes, which was calculated as [1−(test compound WDS count/vehicle WDS count)]×100.

[2] = molecular target: T1, canine TRPM8 (Canis lupus familiaris, UniProt Q1A7N1); assay: In vitro canine TRPM8 functional assay (icilin-induced intracellular Ca2+ increase, FLIPR/FDSS); format: cell-based; conditions: for inhibition at 0.2 µM / % Inh @ 0.2 μM: 0.2 μM compound, HEK293 canine TRPM8, Table 6; for % Inh @ 1 μM: 1 μM compound, samples diluted from 10 mM stock with 100% DMSO
T1 construct: expressed in transfected cells
Method: The functional activity of representative compounds of the formula (I) of the present invention was quantified by measuring changes in intracellular calcium concentration using a Ca^2+-sensitive fluorescent dye. The changes in fluorescent signal were monitored by a fluorescence plate reader, either a FLIPR™ (Molecular Devices) or FDSS (Hamamatsu).
HEK293 cells stably expressing canine TRPM8 were routinely grown as monolayers in Dulbecco's minimum essential medium supplemented with 10% FBS, 2 mM L-glutamine, 100 units/mL penicillin, 100 ug/mL streptomycin and 400 μg/mL G418. Cells were maintained in 5% CO2 at 37° C. At 24 hr prior to assay, cells were seeded in black wall, clear-base poly-D-lysine coated 384-well plates (BD Biosciences, N.J., USA) at a density of 5,000 cells per well in culture medium and grown overnight in 5% CO2 at 37° C. On assay day, growth media was removed, and cells were loaded with Calcium 3 Dye (Molecular Devices) for 35 min at 37° C., under 5% CO2 and then incubated for 25 min at room temperature and atmosphere. Subsequently, cells were tested for agonist-induced increases in intracellular Ca^2+ levels using FLIPR™ or FDSS. Cells were treated with compounds of the formula (I) at varying concentrations and intracellular Ca^2+ was measured for 5 min prior to the addition of icilin to all wells to achieve a final concentration that produces approximately an 80% maximal response.
Basal FI was subtracted prior to normalizing data to percent of maximal response. Curves were generated using the average of quadruplicate wells for each data point using nonlinear regression of either sigmoidal dose response or sigmoidal dose response (variable slope). Finally, the EC50 and IC50 values were calculated with the best-fit curve determined by GraphPad Prism
Test samples were prepared by diluting a 10 mM stock solution of test compound with 100% DMSO prior to addition to assay buffer.

T1 sequence (Q1A7N1 1-1104): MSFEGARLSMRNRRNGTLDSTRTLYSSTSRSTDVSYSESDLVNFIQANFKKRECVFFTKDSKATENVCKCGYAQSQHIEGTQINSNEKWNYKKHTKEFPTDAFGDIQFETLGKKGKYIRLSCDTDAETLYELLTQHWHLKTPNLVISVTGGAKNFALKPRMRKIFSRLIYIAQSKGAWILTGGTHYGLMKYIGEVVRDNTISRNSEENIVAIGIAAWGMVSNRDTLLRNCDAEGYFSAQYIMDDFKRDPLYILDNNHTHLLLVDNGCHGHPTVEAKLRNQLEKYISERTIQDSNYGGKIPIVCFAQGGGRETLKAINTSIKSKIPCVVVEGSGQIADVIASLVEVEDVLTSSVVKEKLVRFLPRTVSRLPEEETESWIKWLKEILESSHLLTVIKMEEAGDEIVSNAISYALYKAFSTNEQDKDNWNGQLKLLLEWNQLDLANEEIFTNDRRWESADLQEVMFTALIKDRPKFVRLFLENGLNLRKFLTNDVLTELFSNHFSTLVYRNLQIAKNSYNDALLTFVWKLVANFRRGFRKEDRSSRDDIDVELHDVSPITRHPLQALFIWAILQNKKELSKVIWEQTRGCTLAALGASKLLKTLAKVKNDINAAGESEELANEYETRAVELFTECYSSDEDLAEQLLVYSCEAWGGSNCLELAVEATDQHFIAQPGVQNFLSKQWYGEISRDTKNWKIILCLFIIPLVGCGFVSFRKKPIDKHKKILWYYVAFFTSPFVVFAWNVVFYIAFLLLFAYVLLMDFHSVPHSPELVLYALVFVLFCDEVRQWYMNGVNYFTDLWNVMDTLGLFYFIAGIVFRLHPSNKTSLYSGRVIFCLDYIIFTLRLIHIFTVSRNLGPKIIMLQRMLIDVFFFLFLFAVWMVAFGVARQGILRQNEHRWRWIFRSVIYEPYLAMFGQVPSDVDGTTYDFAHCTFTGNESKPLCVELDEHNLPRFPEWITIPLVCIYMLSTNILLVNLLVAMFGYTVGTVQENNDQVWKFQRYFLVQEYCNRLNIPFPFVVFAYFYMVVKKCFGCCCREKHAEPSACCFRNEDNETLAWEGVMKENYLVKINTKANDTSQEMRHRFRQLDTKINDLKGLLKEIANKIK

| Compound | % Inh @ 0.2 μM [2] [%] | other results |
| --- | --- | --- |
| CCn1c(=NS(=O)(=O)c2ccccc2)n(Cc2ccc(C(F)(F)F)c(F)c2)c2cc(C(F)(F)F)ccc21 [Compound 37] | – | % Inhibition of icilin-induced "wet-dog" shakes [1]: 0.6%; IC50 [2]: 5 nM; inhibition at 0.2 µM [2]: 93% |
| Cc1ccc2c(c1)n(C)c(=NS(=O)(=O)c1ccccc1)n2Cc1ccc(OC(F)(F)F)cc1 [Compound 54] | 6 | % Inh @ 1 μM ([2]; re-test, Table 7): 55%; IC50 ([2]; re-test, samples diluted from 10 mM stock with 100% DMSO before addition to assay buffer, Table 7, read-out: IC50): 645 nM |
| Cc1ccc2c(c1)n(C)/c(=N/S(=O)(=O)c1ccccc1)n2Cc1ccc(C(F)(F)F)c(F)c1 [Compound 55, N-[1-(3-Fluoro-4-trifluoromethyl-benzyl)-3,5-dimethyl-1,3-dihydro-benzimidazol-2-ylidene]-benzene sulfonamide] | – | inhibition at 0.2 µM [2]: 18% |
| Cc1ccc2c(c1)n(C)c(=NS(=O)(=O)c1ccccc1)n2Cc1ccc(C(F)(F)F)cc1 [Compound 56] | 1 | % Inh @ 1 μM ([2]; re-test, Table 7): 40% |
| Cn1c(=NS(=O)(=O)c2ccccc2)n(Cc2ccc(C(F)(F)F)c(F)c2)c2ccc(C(F)(F)F)cc21 [Compound 57] | 45 | – |
| Cn1c(=NS(=O)(=O)c2ccccc2)n(Cc2ccc(OC(F)(F)F)cc2)c2ccc(C(F)(F)F)cc21 [Compound 58] | 25 | – |
| Cn1c(=NS(=O)(=O)c2ccccc2)n(Cc2ccc(C(F)(F)F)cc2)c2ccc(C(F)(F)F)cc21 [Compound 59] | 20 | – |
| Cc1cc2c(cc1C)n(Cc1ccc(OC(F)(F)F)cc1)c(=NS(=O)(=O)c1ccccc1)n2C [Compound 60] | 5 | % Inh @ 1 μM ([2]; re-test, Table 7): 48% |
| Cc1cc2c(cc1C)n(Cc1ccc(C(F)(F)F)c(F)c1)c(=NS(=O)(=O)c1ccccc1)n2C [Compound 61] | 14 | – |
| Cc1cccc2c1n(Cc1ccc(C(F)(F)F)c(F)c1)c(=NS(=O)(=O)c1ccccc1)n2C [Compound 62] | 19 | – |
| O=S(=O)(/N=c1\n(Cc2ccc(C(F)(F)F)cc2)c2cccc3c2n1CCO3)c1ccccc1 [Compound 63, N-[1-(4-Trifluoromethyl-benzyl)-3,4-dihydro-1H-5-oxa-1,2a-diaza-acenaphthylen-2-ylidene]-benzenesulfonamide TFA salt] | – | inhibition at 0.2 µM [2]: 34% |
| O=S(=O)(N=c1n2c3c(cccc3n1-c1ccc(OC(F)(F)F)cc1)OCC2)c1ccccc1 [Compound 64] | 61 | – |
